Drawing on patent EP0638125B1, “AC[…] A PRODUCER OF RAPAMYCIN” (PFIZER INC., priority 1992, dated 1993), this text covers CC50, zone of inhibition and IC50 for one molecule.

≈ marks a conversion by molar mass, not a printed value.

What all share (type): cell-based
A short description of data set [1]: cytotoxicity, standard procedure (Mosmann). The text has this:
(§1) The IC₅₀ values (µg/ml) of MLR and cytotoxicity for rapamycin were 7 x 10⁻³ and >3.0, respectively when tested by standard procedures for MLR (D. P. Dubey et al., Manual of Clinical Laboratory Immunology, 3rd Ed., pp. 847-858, 1986) and for cytotoxicity (T. Mosmann, J., J. Immunol. Methods, 65, 55-63, 1983).

In a further data set the test system is Candida albicans. The data set can be described thus: antifungal activity, agar plate dilution method with paper disk. Conditions: 40 µg/disk, 8 mm diameter paper disk, agar medium for neomycin assay (Difco). The procedure:
Antifungal activity was determined by an agar plate dilution method using a fungal culture, Candida albicans. The diameter of inhibition zone of rapamycin was 25 mm when tested at 40 µg/disk (8 mm diameter paper disk, Advantic) on an commercially available agar medium for neomycin assay (Difco).

The subject of data set [2] is mixed lymphocyte reaction (MLR). The data set can be described thus: mixed lymphocyte reaction (MLR), standard procedure (Dubey et al.). Conditions: read-out: IC₅₀ values of MLR.
Text: as §1

As usually defined, the CC50 is the concentration at which the toxic effect on the cells reaches its halfway point. Read a high CC50 as lower toxicity to the cells. For orientation: zone of inhibition means the extent of the growth-free halo in a diffusion test. A low value points to little suppression of growth. For the molecule `CO[C@H]1C[C@@H]2CC[C@@H](C)[C@@](O)(O2)C(=O)C(=O)N2CCCC[C@H]2C(=O)O[C@H]([C@H](C)C[C@@H]2CC[C@@H](O)[C@H](OC)C2)CC(=O)[C@H](C)/C=C(\C)[C@@H](O)[C@@H](OC)C(=O)[C@H](C)C[C@H](C)/C=C/C=C/C=C/1C` [rapamycin], the CC50 in data set [1] was > 3000 ng/mL. For the same molecule, the zone of inhibition at 40 µg/disc in the data set with Candida albicans is 25 mm. Further, the IC50 in data set [2] is 7 ng/mL (≈ 7.66 nM).
